Test results as given in patent publication US7541478B2, “Coumarin derivative and use thereof” (Takeda Pharmaceutical Company Limited, priority 2004, dated 2009).

What was measured:
[1] = molecular target: T1, mouse abdominal macrophage microsome ACAT (Mus musculus, UniProt Q61263); experiment: ACAT inhibitory activity (3H-oleyl-CoA, cholesteryl ester formation); format: biochemical; conditions: microsome from thioglycolate-stimulated C57BL6J mouse macrophage; pre-incubated 37° C. 10 minutes, reaction 37° C. 20 minutes; read-out: IC50 (ACAT inhibiting rate 50%)
T1 construct: then ultracentrifuged (4° C., 50,000 rpm, 90 minutes) to prepare a microsome; from tissue; host or cells: abdominal (peritoneal) macrophages of thioglycolate-stimulated C57BL6J mice, cultured 24 h with rabbit beta-VLDL; microsomal fraction
T1 sequence (Q61263 1-540): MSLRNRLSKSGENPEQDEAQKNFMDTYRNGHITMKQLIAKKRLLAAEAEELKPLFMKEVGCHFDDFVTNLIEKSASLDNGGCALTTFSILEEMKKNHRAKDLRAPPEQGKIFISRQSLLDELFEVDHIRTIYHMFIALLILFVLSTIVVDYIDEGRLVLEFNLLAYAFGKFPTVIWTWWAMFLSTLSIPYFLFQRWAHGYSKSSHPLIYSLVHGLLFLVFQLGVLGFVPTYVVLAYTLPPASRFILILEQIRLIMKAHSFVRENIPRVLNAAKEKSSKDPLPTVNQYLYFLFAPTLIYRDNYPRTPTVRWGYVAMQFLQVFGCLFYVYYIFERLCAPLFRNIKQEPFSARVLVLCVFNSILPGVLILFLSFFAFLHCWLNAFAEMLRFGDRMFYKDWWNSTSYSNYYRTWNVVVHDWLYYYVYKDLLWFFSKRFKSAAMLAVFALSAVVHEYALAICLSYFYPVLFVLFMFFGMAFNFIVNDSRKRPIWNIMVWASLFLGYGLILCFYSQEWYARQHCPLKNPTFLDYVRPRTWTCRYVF
Experimental: According to the method of Hakamada et al. (Experimental Medicine Supplement vol. 14, No. 12, Circulation Research Protocol, p, 49-52, 1996), an abdominal macrophage was taken from a thioglycolate-stimulated C57BL6J mouse and cultured for 24 hours in a RPMI 1640-25 mM HEPES (pH7.0) medium containing rabbit β-very low density lipoprotein (β-VLDL, 150 μg cholesterol/ml) which had been prepared by the method of Ishii et al. (Ishii I et al., Arterioscler, Thromb., 12, 1139-1145, 1992). The abdominal macrophage was then collected by centrifugation (4° C., 1.000 rpm, 5 minutes) and sonicated. The sonicated liquid was centrifuged (4° C., 5000 rpm, 15 minutes) and then ultracentrifuged (4° C., 50,000 rpm, 90 minutes) to prepare a microsome. The microsome thus obtained was used for measuring ACAT inhibitory activity of a test compound as mouse abdominal macrophage microsome ACAT.
A mixture of a test compound, cholesterol-albumin-containing-Tris-HCL buffer (pH 7.5) and mouse abdominal macrophage microsome ACAT was pre-incubated at 37° C. for 10 minutes, and ^3H-oleyl-CoA was added to react at 37° C. for 20 minutes. […] The extract was subjected to silica gel thin chromatography (petroleum ether:diethyl ether:acetic acid=9:1:0.1 v/v), and the resulting ^3H-CE fraction was measured with a scintillation counter. […]

[2] = Oral absorbability: blood level of Compound X after oral administration to rabbits; format: in vivo; conditions: male New Zealand white rabbits (n=3), 0.5% methylcellulose suspension, 10 mg/kg in terms of Compound X, blood level of Compound X measured
Experimental: [Method] Male New Zealand white rabbits (n=3) were forced to take Compound A, B or X orally (0.5% suspension in methylcellulose, the dose was 10 mg/kg in terms of Compound X). A blood level of Compound X was measured with time to determine the maximum blood level (Cmax) and time required for reaching the maximum blood level (Tmax). Compound X:(2E)-3-{3-[7-chloro-3-(2-{[4-fluoro-2-(trifluoromethyl)phenyl]amino}-2-oxoethyl)-6-methyl-2-oxo-2H-chromen-4yl]phenyl}acrylic acid described in International Publication WO02/06264.

## monocalcium bis((2E)-3-[3-[7-chloro-3-(2-[[4-fluoro-2-(trifluoromethyl)phenyl]amino]-2-oxoethyl)-6-methyl-2-oxo-2H-chromen-4-yl]phenyl]acrylate) trihydrate [Compound A]
[1]
  IC50: 1.96 µM
[2]
  Cmax (maximum blood level of Compound X): 132 ± 29 ng/mL
  Tmax (time required for reaching the maximum blood level): 40.2 ± 17.4 min
